# Experimental data: paper PMC10826971, “Evaluating protein cross-linking as a therapeutic strategy to stabilize SOD1 variants in a mouse model of familial ALS” (PLOS Biology, 2024)
# “Also recorded” adds a separate entry of the source.
# Assays:
# SOD1 variants [1] = experiment: Plate-based and gel-based SOD1 enzymatic activity assays (results in words); format: biochemical, human
# Experimental: (§1) Enzymatic activity of SOD1 variants were assessed using a gel-based assay with riboflavin and nitroblue tetrazolium (NBT) as previously described. […] The samples were mixed with native sample buffer (Bio-Rad) in a 1:1 ratio and were loaded into each well to a 12% polyacrylamide gel (Bio-Rad). The gel was stained in dark using 50 mM potassium phosphate (pH 7.8), 0.13 mg/mL of NBT, and 0.1 mg/mL of riboflavin for 45 min. The gel was exposed to light for with 1 μL/mL of N,N,N^′,N^′-tetramethylethylenediamine (TEMED) for 2 min. SOD1 activity can be seen as colorless bands as the SOD1 scavenges the superoxide that inhibits insoluble blue color formazan formation.
# (§2) All samples were prepared as described in gel-based enzymatic activity assay section and were (10 μL) mixed with 160 μL of solution A (6,000 units/mL catalase, 10 mM hypoxanthine, and 5 mM XTT) and 160 μL of solution B (xanthine oxidase 16 mg/mL) in a flat-bottom 96-well plate and was monitored for absorbance at 490 nm for 30 min. All samples were analyzed in technical triplicate using slope function in Microsoft Excel.
# SOD1 variants [2] = target: T1, SOD1 variants (Homo sapiens, UniProt P00441, H47R); experiment: as above; format: biochemical; conditions: plate-based and gel-based assays
# T1 construct: made in house; host or cells: EGy118ΔSOD1 yeast, YEp351 expression vector
# Experimental: as §1, §2
# SOD1^G85R = target: T2, SOD1^G85R (Homo sapiens, UniProt P00441, G86R); experiment: Differential scanning fluorimetry (DSF), thermal stability; format: binding
# T2 construct: made in house; host or cells: EGy118ΔSOD1 yeast, YEp351 expression vector
# Experimental: (§3) To understand how cross-linking effects SOD1 stability, we quantified changes in unfolding temperature (ΔTu, hereafter thermal stability).
# (§4) The effect of cross-link formation on the thermal stability of SOD1 was determined by differential scanning fluorimetry as previously described. […] After incubation, SYPRO Orange (Invitrogen Corporation, Carlsbad, California, USA), an environmentally sensitive fluorescent dye which is quenched in an aqueous environment but becomes unquenched once it binds hydrophobic residues, was added to the reaction mixture to a final concentration of 200×. The samples were then transferred to a fast optical 96-well reaction plate (Applied Biosystem, Life Technologies Corporation, Carlsbad, California, USA) and loaded on to the real-time PCR machine (Applied Biosystem, Life Technologies Corporation, Carlsbad, California, USA) after plate was spun down to eliminate bubbles. The Melt curve template in StepOne Plus software was used to set up a method. […] The final concentration of DMSO in the reaction mixture was checked as it contributes to the denaturation of proteins. Dilutions were performed accordingly to maintain the final concentration of DMSO less than 1% (vol/vol). All samples were run in technical triplicates. The background data was subtracted from the average relative fluorescence and average derivate for each temperature point, and the data were normalized before Tus were quantified by averaging the negative first derivative of relative fluorescence of all 3 runs and identifying the local minima.
# SOD1^H46R = target: T3, SOD1^H46R (Homo sapiens, UniProt P00441, H47R); experiment: as above; format: binding
# T3 construct: made in house; host or cells: EGy118ΔSOD1 yeast, YEp351 expression vector
# Experimental: as §3, §4
# T2 sequence (P00441 2-154 G86R limits assumed): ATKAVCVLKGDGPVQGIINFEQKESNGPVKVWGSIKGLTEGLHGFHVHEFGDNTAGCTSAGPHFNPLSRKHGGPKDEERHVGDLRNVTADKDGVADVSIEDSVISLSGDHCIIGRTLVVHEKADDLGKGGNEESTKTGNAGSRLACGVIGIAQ
# T3 sequence (P00441 2-154 H47R limits assumed): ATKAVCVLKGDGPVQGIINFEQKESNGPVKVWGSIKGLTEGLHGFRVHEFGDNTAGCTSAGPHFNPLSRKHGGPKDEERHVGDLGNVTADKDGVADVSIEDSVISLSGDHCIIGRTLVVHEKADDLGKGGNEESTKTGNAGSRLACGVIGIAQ
# T1 sequence (P00441 2-154 H47R): as the sequence (P00441 2-154 H47R limits assumed) above
smiles,measurement,setting,value
"[O-][S+]1CCCCS1 (centres unmarked) [S-XL6, 1,2-dithiane-1-oxide]",Enzymatic activity,"SOD1 variants [1]; cross-linked fALS SOD1 variants, summary table",Activity of cross-linked quaternary structures of fALS SOD1 variants are more comparable to uncross-linked wild-type SOD1
same,"enzymatic activity of SOD1^A4V, SOD1^G93A and SOD1^G85R after cross-linking",SOD1 variants [1]; plate-based and gel-based assays,levels comparable to that of wild-type SOD1; also recorded: increased to that of wild-type SOD1
same,enzymatic activity of SOD1^H46R after cross-linking,SOD1 variants [2],No change in activity; also recorded: did not affect
same,unfolding temperature (Tu) of S-XL6 cross-linked protein,"SOD1^G85R; 10-fold molar excess S-XL6, 4 h 37°C, untreated 40.8°C",65.1 °C
same,Normalized ROX,"SOD1^G85R; SOD1 G85R Protein+S-XL6, Avg. Temp 88.557",0.19
same,Normalized ROX,"SOD1^G85R; SOD1 G85R Protein+S-XL6, Avg. Temp 88.853",0.18
same,Normalized ROX,"SOD1^G85R; SOD1 G85R Protein+S-XL6, Avg. Temp 89.160",0.17
same,Normalized ROX,"SOD1^G85R; SOD1 G85R Protein+S-XL6, Avg. Temp 89.454",0.17
same,Normalized ROX,"SOD1^G85R; SOD1 G85R Protein+S-XL6, Avg. Temp 89.762",0.16
same,Normalized ROX,"SOD1^G85R; SOD1 G85R Protein+S-XL6, Avg. Temp 90.051",0.15
same,Normalized ROX,"SOD1^G85R; SOD1 G85R Protein+S-XL6, Avg. Temp 90.354",0.15
same,Normalized ROX,"SOD1^G85R; SOD1 G85R Protein+S-XL6, Avg. Temp 90.655",0.14
same,Normalized ROX,"SOD1^G85R; SOD1 G85R Protein+S-XL6, Avg. Temp 90.952",0.13
same,Normalized ROX,"SOD1^G85R; SOD1 G85R Protein+S-XL6, Avg. Temp 91.251",0.13
same,Normalized ROX,"SOD1^G85R; SOD1 G85R Protein+S-XL6, Avg. Temp 91.555",0.12
same,Normalized ROX,"SOD1^G85R; SOD1 G85R Protein+S-XL6, Avg. Temp 91.855",0.11
same,Normalized ROX,"SOD1^G85R; SOD1 G85R Protein+S-XL6, Avg. Temp 92.157",0.11
same,Normalized ROX,"SOD1^G85R; SOD1 G85R Protein+S-XL6, Avg. Temp 92.449",0.10
same,Normalized ROX,"SOD1^G85R; SOD1 G85R Protein+S-XL6, Avg. Temp 92.753",0.10
same,Normalized ROX,"SOD1^G85R; SOD1 G85R Protein+S-XL6, Avg. Temp 93.058",0.09
same,Normalized ROX,"SOD1^G85R; SOD1 G85R Protein+S-XL6, Avg. Temp 93.353",0.09
same,Normalized ROX,"SOD1^G85R; SOD1 G85R Protein+S-XL6, Avg. Temp 93.651",0.08
same,Normalized ROX,"SOD1^G85R; SOD1 G85R Protein+S-XL6, Avg. Temp 93.955",0.0744
same,Normalized ROX,"SOD1^G85R; SOD1 G85R Protein+S-XL6, Avg. Temp 94.247",0.07
same,Normalized ROX,"SOD1^G85R; SOD1 G85R Protein+S-XL6, Avg. Temp 94.552",0.07
same,Normalized ROX,"SOD1^G85R; SOD1 G85R Protein+S-XL6, Avg. Temp 94.853",0.06
same,Normalized ROX,"SOD1^G85R; SOD1 G85R Protein+S-XL6, Avg. Temp 95.157",0.06
same,Normalized ROX,"SOD1^G85R; SOD1 G85R Protein+S-XL6, Avg. Temp 95.458",0.05
same,Normalized ROX,"SOD1^G85R; SOD1 G85R Protein+S-XL6, Avg. Temp 95.752",0.05
same,Normalized ROX,"SOD1^G85R; SOD1 G85R Protein+S-XL6, Avg. Temp 96.054",0.044
same,Normalized ROX,"SOD1^G85R; SOD1 G85R Protein+S-XL6, Avg. Temp 96.360",0.04
same,Normalized ROX,"SOD1^G85R; SOD1 G85R Protein+S-XL6, Avg. Temp 96.652",0.0332
same,Normalized ROX,"SOD1^G85R; SOD1 G85R Protein+S-XL6, Avg. Temp 96.955",0.0323
same,Normalized ROX,"SOD1^G85R; SOD1 G85R Protein+S-XL6, Avg. Temp 97.253",0.0276
same,Normalized ROX,"SOD1^G85R; SOD1 G85R Protein+S-XL6, Avg. Temp 97.554",0.0216
same,Normalized ROX,"SOD1^G85R; SOD1 G85R Protein+S-XL6, Avg. Temp 97.851",0.02
same,Normalized ROX,"SOD1^G85R; SOD1 G85R Protein+S-XL6, Avg. Temp 98.161",0.0177
same,Normalized ROX,"SOD1^G85R; SOD1 G85R Protein+S-XL6, Avg. Temp 98.455",0.0121
same,Normalized ROX,"SOD1^G85R; SOD1 G85R Protein+S-XL6, Avg. Temp 98.751",0.0106
same,Normalized ROX,"SOD1^G85R; SOD1 G85R Protein+S-XL6, Avg. Temp 99.056",0.00748
same,Normalized ROX,"SOD1^G85R; SOD1 G85R Protein+S-XL6, Avg. Temp 99.359",0.00339
same,Normalized ROX,"SOD1^G85R; SOD1 G85R Protein+S-XL6, Avg. Temp 99.657",0.00106
same,Normalized ROX,"SOD1^G85R; SOD1 G85R Protein+S-XL6, Avg. Temp 99.866",0.00
same,unfolding temperature (Tu) of S-XL6 cross-linked protein,"SOD1^H46R; 10-fold molar excess S-XL6, 4 h 37°C, untreated 46.3°C",69.3 °C
same,Normalized ROX,"SOD1^H46R; SOD1 H46R Protein+S-XL6, Avg. Temp 88.537",0.19
same,Normalized ROX,"SOD1^H46R; SOD1 H46R Protein+S-XL6, Avg. Temp 88.845",0.18
same,Normalized ROX,"SOD1^H46R; SOD1 H46R Protein+S-XL6, Avg. Temp 89.124",0.17
same,Normalized ROX,"SOD1^H46R; SOD1 H46R Protein+S-XL6, Avg. Temp 89.441",0.16
same,Normalized ROX,"SOD1^H46R; SOD1 H46R Protein+S-XL6, Avg. Temp 89.738",0.15
same,Normalized ROX,"SOD1^H46R; SOD1 H46R Protein+S-XL6, Avg. Temp 90.026",0.15
same,Normalized ROX,"SOD1^H46R; SOD1 H46R Protein+S-XL6, Avg. Temp 90.347",0.14
same,Normalized ROX,"SOD1^H46R; SOD1 H46R Protein+S-XL6, Avg. Temp 90.631",0.13
same,Normalized ROX,"SOD1^H46R; SOD1 H46R Protein+S-XL6, Avg. Temp 90.929",0.12
same,Normalized ROX,"SOD1^H46R; SOD1 H46R Protein+S-XL6, Avg. Temp 91.236",0.12
same,Normalized ROX,"SOD1^H46R; SOD1 H46R Protein+S-XL6, Avg. Temp 91.540",0.11
same,Normalized ROX,"SOD1^H46R; SOD1 H46R Protein+S-XL6, Avg. Temp 91.847",0.10
same,Normalized ROX,"SOD1^H46R; SOD1 H46R Protein+S-XL6, Avg. Temp 92.140",0.10
same,Normalized ROX,"SOD1^H46R; SOD1 H46R Protein+S-XL6, Avg. Temp 92.454",0.09
same,Normalized ROX,"SOD1^H46R; SOD1 H46R Protein+S-XL6, Avg. Temp 92.741",0.08
same,Normalized ROX,"SOD1^H46R; SOD1 H46R Protein+S-XL6, Avg. Temp 93.029",0.08
same,Normalized ROX,"SOD1^H46R; SOD1 H46R Protein+S-XL6, Avg. Temp 93.345",0.07
same,Normalized ROX,"SOD1^H46R; SOD1 H46R Protein+S-XL6, Avg. Temp 93.646",0.07
same,Normalized ROX,"SOD1^H46R; SOD1 H46R Protein+S-XL6, Avg. Temp 93.947",0.06
same,Normalized ROX,"SOD1^H46R; SOD1 H46R Protein+S-XL6, Avg. Temp 94.241",0.06
same,Normalized ROX,"SOD1^H46R; SOD1 H46R Protein+S-XL6, Avg. Temp 94.530",0.0527
same,Normalized ROX,"SOD1^H46R; SOD1 H46R Protein+S-XL6, Avg. Temp 94.809",0.05
same,Normalized ROX,"SOD1^H46R; SOD1 H46R Protein+S-XL6, Avg. Temp 95.129",0.0441
same,Normalized ROX,"SOD1^H46R; SOD1 H46R Protein+S-XL6, Avg. Temp 95.418",0.04
same,Normalized ROX,"SOD1^H46R; SOD1 H46R Protein+S-XL6, Avg. Temp 95.750",0.0365
same,Normalized ROX,"SOD1^H46R; SOD1 H46R Protein+S-XL6, Avg. Temp 96.054",0.032
same,Normalized ROX,"SOD1^H46R; SOD1 H46R Protein+S-XL6, Avg. Temp 96.342",0.03
same,Normalized ROX,"SOD1^H46R; SOD1 H46R Protein+S-XL6, Avg. Temp 96.634",0.0257
same,Normalized ROX,"SOD1^H46R; SOD1 H46R Protein+S-XL6, Avg. Temp 96.939",0.0228
same,Normalized ROX,"SOD1^H46R; SOD1 H46R Protein+S-XL6, Avg. Temp 97.230",0.02
same,Normalized ROX,"SOD1^H46R; SOD1 H46R Protein+S-XL6, Avg. Temp 97.449",0.017
same,Normalized ROX,"SOD1^H46R; SOD1 H46R Protein+S-XL6, Avg. Temp 97.842",0.0143
same,Normalized ROX,"SOD1^H46R; SOD1 H46R Protein+S-XL6, Avg. Temp 98.133",0.0127
same,Normalized ROX,"SOD1^H46R; SOD1 H46R Protein+S-XL6, Avg. Temp 98.436",0.01
same,Normalized ROX,"SOD1^H46R; SOD1 H46R Protein+S-XL6, Avg. Temp 98.745",0.00697
same,Normalized ROX,"SOD1^H46R; SOD1 H46R Protein+S-XL6, Avg. Temp 99.031",0.00571
same,Normalized ROX,"SOD1^H46R; SOD1 H46R Protein+S-XL6, Avg. Temp 99.342",0.0034
same,Normalized ROX,"SOD1^H46R; SOD1 H46R Protein+S-XL6, Avg. Temp 99.632",0.00127
same,Normalized ROX,"SOD1^H46R; SOD1 H46R Protein+S-XL6, Avg. Temp 99.860",0.00
